Source: US11842798B2, “Natural product and genetic data analysis and discovery system, method and computational platform therefor” (priority 2015, dated 2023)
“Also recorded” adds a separate entry of the source. Where two headings read alike, the source gives them in different places. Numbered stars: 1 amine (or outer) side, 2 acyl side, 3 side chain; on linkers, the order of the positions; unused ones are H or OH. Bridge positions count the residues as written; N and C are the ends. Square brackets hold non-standard residues; d marks the D form. Peptide text beside a SMILES is read from it. X1 = O=C(/C(=C\c1c[nH]c2ccccc12)N[*:1])[*:2]; X2 = CC(c1c[nH]c2ccccc12)C(N[*:1])C(=O)[*:2]; βAsp = O=C(O)[CH](CC(=O)[*:2])N[*:1]

Key:
[1] = test system: Telomycin-resistant bacteria; assay: MIC by broth microdilution, telomycin-resistant strains; type: cell-based, S. aureus and B. subtilis; conditions: for activity against resistant strains: compared with telomycin A against sensitive strains
Protocol: (§1) FIG. 46 summarizes MICs of telomycin antibiotics (1-10). Sensitive and resistant strains were exposed to telomycins and MICs were measured by microdilution in CAMHB. MICs were determined after 16 h growth, and are shown in μg ml−1.
(§2) Minimum inhibitory concentrations (MICs) for telomycins were determined using broth microdilution in cation-adjusted Mueller Hinton broth (CAMHB). Bacillus subtilis strains were cultured at 28° C., and S. aureus strains were cultured at 37° C. […] For assessing the impact of treating strains with sodium chloride concentrations prior to telomycin, S. aureus was grown overnight in CAMHB containing 0, 0.5, 1, or 1.5 M NaCl and then MICs were recorded as described above.
To identify mutations that conferred resistance to telomycin, we isolated colonies of S. aureus Newman that appeared inside the zone of inhibition observed during telomycin disk diffusion assays. […] Genomic DNA was extracted from highly resistant isolates and their sensitive parental strain, and sequenced with an Illumina MiSeq platform. Sequences were compared using BreSeq, which exclusively identified mutations in the predominant, house-keeping cardiolipin synthase (cls2). Bacillus subtilis telomycin-resistant mutants were identified in a similar manner, and mutations in cardiolipin synthase were confirmed by sequencing PCR products of the two cardiolipin synthase genes: clsA and clsB. […] PCR primers used for the amplification of B. subtilis cardiolipin synthase genes are as follows— • clsAF: 5′-[…]-3′ (SEQ ID NO: 1); • clsAR: 5′-[…]-3′ (SEQ ID NO: 2); • clsBF: 5′-[…]-3′ (SEQ ID NO: 3); • clsBR: 5′-[…]-3′ (SEQ ID NO: 4). Structure Elucidation

[2] = test system: Sensitive and resistant strains; assay: MICs of telomycin antibiotics (FIG. 46); type: cell-based
Protocol: as §1, §2

Gram positive organisms = conditions: cited from earlier work
[3] = in vivo, cited from earlier work
sheep red blood cell = assay: Red blood cell (RBC) hemolysis assay; type: cell-based; conditions: 0.25% sheep RBC, 256 to 2 μg/mL, 1 h, 37° C.
Protocol: Hemolytic activity of telomycin was measured against a 0.25% sheep red blood cell (RBC, Fisher Scientific) suspension in phosphate-buffered saline. Telomycin was serially diluted from 256 to 2 μg/mL and incubated with the RBC suspension for 1 h at 37° C. in a polypropylene 96-well plate with conical wells. After 1 h, RBCs were pelleted (1000×g for 5 min) and the supernatant was transferred to a flat-bottom polystyrene 96-well plate, measuring absorbance at 540 nm. 1% Triton X-100 was used as a positive control, while DMSO alone and RBCs alone were used as negative controls.
A solution of 0.25% sheep red blood cell suspension in phosphate buffered saline was incubated for 1 h at 37° C. with either a serial dilution of telomycin, 1% Triton X100 (positive lysis control), DMSO alone (1%; negative lysis control), or without added content (negative lysis control). After 1 h RBCs were pelleted and lysis was assessed by measuring absorbance of the supernatant at 540 nm.

[4] = test system: Telomycin-resistant bacteria; assay: CFU lysis assay on spontaneously-resistant strains; type: cell-based, S. aureus and B. subtilis; conditions: 32×MIC, 90 min
Protocol: (§3) Cultures of S. aureus and B. subtilis were grown overnight in CAMHB. Starter cultures were used to inoculate fresh media and were grown to OD=0.2, after which they were transferred to 96-well plates. Cultures were serially diluted and plated on CAMHB agar to determine initial colony-forming units. Telomycin dissolved in DMSO was added to each well (1:100) and incubated for 90 min, followed by serial dilution and plating to determine colony-forming units. Results are shown as ±s.d.; n=4; Two-tailed students t-test.
(§4) (a) Mutating cardiolipin synthase provides spontaneous telomycin resistance. Wild type and spontaneously-resistant S. aureus (left) and B. subtilis (right) were exposed to 32×MIC concentrations of telomycin for 90 min. CFUs were taken before treatment (black) and after 90 min (white). Results are shown as ±s.d.; n=4; Two-tailed students t-test. P=0.0018. Data are representative of three independent experiments. […] Telomycin (final concentration 5 mM; 6.3 mg ml^−1) was mixed with CL, PG, PE, or PC at concentrations ranging from 0.125 to 5 mg ml^−1. Mixtures were incubated for 5 min before turbidity was measured using absorbance at 600 nm. […] Telomycin (0.1 mM) was exposed to lipids at concentrations ranging from 1 to 0.05 mM, then used to determine MICs against wild type B. subtilis. […] (d) Cardiolipin abolishes telomycin's antibacterial activity. […]

HEK293 cells = assay: Cytotoxicity assay (Alamar Blue); type: cell-based, human; conditions: HEK293, 48 h
Protocol: HEK293 cells were obtained from the American Type Culture Collection (ATCC; ATCC CRL-1573) and maintained in Minimal Essential Media (MEM) Alpha modifications supplemented with 10% fetal bovine serum. […] Cells were cultured in 96-well plates containing 200 μL of media and 5000 cells per well. After 3 h of incubation, cells were treated with a serial dilution of telomycin A. Experiments were performed in duplicate with DMSO as a negative control and mitomycin C as a positive control. After 48 h incubation, 10% (22 μL) Alamar Blue (Life Technologies) was added and incubated with cells for 4 h at 37° C. Fluorescence was measured at an excitation wavelength of 530 nm and an emission wavelength of 590 nm and compared to a no-drug control.

S. aureus [5] = assay: Colony forming unit (CFU) lysis assay; type: cell-based
Protocol: as §3
(§5) (a) Structure of telomycin. […] Wild type S. aureus (OD 0.2) was exposed to 8 (1×MIC) or 256 μg ml^−1 (32×MIC) telomycin. Colony-forming units (CFUs) were taken before treatment (black) and after 90 min (white). Results are shown as ±s.d.; n=4; Two-tailed students t-test. P=0.0023. Data are representative of three independent experiments.
(a) Mutating cardiolipin synthase provides spontaneous telomycin resistance. Wild type and spontaneously-resistant S. aureus (left) and B. subtilis (right) were exposed to 32×MIC concentrations of telomycin for 90 min. CFUs were taken before treatment (black) and after 90 min (white). Results are shown as ±s.d.; n=4; Two-tailed students t-test. P=0.0018. Data are representative of three independent experiments. […] Mixtures were incubated for 5 min before turbidity was measured using absorbance at 600 nm. […]

[6] = Turbidity of telomycin-lipid mixtures; type: binding; conditions: telomycin mixed with cardiolipin, absorbance at 600 nm, other lipids as contrast
Protocol: To measure the turbidity of telomycin-lipid mixtures, telomycin was dissolved in methanol at a concentration of 12.8 mg/mL, and cardiolipin (Sigma Aldrich; C0563; 98% pure), phosphatidylglycerol (Sigma Aldrich; 63371; ≥98% pure), phosphatidylcholine (Sigma Aldrich; P3556; ≥99% pure), and phosphatidylethanolamine (Sigma Aldrich; P7943; 97% pure) were dissolved in methanol at a concentration of 10 mg/mL. 20 μL of telomycin was mixed with 20, 10, 5, 1, or 0.5 μL of each lipid (final reaction volume 40 μL) in a flat-bottom polystyrene 96-well plate. Optical density (OD=600 nm) was measured after 10 min.
(§6) (a) Mutating cardiolipin synthase provides spontaneous telomycin resistance. Wild type and spontaneously-resistant S. aureus (left) and B. subtilis (right) were exposed to 32×MIC concentrations of telomycin for 90 min. CFUs were taken before treatment (black) and after 90 min (white). Results are shown as ±s.d.; n=4; Two-tailed students t-test. P=0.0018. Data are representative of three independent experiments. […] Telomycin (final concentration 5 mM; 6.3 mg ml^−1) was mixed with CL, PG, PE, or PC at concentrations ranging from 0.125 to 5 mg ml^−1. Mixtures were incubated for 5 min before turbidity was measured using absorbance at 600 nm. […] Telomycin (0.1 mM) was exposed to lipids at concentrations ranging from 1 to 0.05 mM, then used to determine MICs against wild type B. subtilis. […]

[7] = test system: Chinese Hamster ovary (CHO) cells; conditions: previous studies; cited from earlier work
B. subtilis [8] = assay: Bioactivity of telomycin-lipid mixtures on solid agar (diffusion disks); type: cell-based; conditions: excess cardiolipin (2× molar equivalent)
Protocol: To assess the impact of various lipids on telomycin's antibacterial activity on solid agar, 10 μL of 10 mM telomycin was mixed with 10 μL of 20 mM cardiolipin (Sigma Aldrich; C0563; ≥98% pure), phosphatidylglycerol (Sigma Aldrich; 63371; ≥98% pure), phosphatidylcholine (Sigma Aldrich; P3556; ≥99% pure), or phosphatidylethanolamine (Sigma Aldrich; P7943; ≥97% pure). All compounds were dissolved in methanol. Mixtures were incubated for 10 min, then added to diffusion disks, allowed to dry, then placed on a CAMHB agar plate with B. subtilis as an indicator organism. The plate was incubated overnight at 28° C.
as §6

B. subtilis [9] = assay: Bioactivity of telomycin-lipid mixtures in liquid media (MIC); type: cell-based
Protocol: To assess the impact of various lipids on telomycin's antibacterial activity in liquid media, telomycin was dissolved in methanol at 12.8 mg/mL (approx. 10 mM) and 1 μL was added to a 96-well plate. Lipids were dissolved in methanol and 10 μL of 10, 5, 2, 1, or 0.5 mM lipid was added to each telomycin-containing well. CAMHB inoculated with B. subtilis was added to each well and serially diluted to determine the minimum inhibitory concentration of each telomycin-lipid mixture. Plates were incubated shaking at 28° C. for 16 h.
as §4

S. aureus [10] = assay: MIC by broth microdilution in CAMHB; type: cell-based
Protocol: as §2, §5

B. subtilis [11] = assay: Colony forming unit (CFU) lysis assay; type: cell-based; conditions: concentrations above the MIC
Protocol: as §3, §4

Compound: di-5-methyltryptophan telomycin
- activity against resistant strains [1]: comparable with the activity of telomycin A against sensitive strains

Compound: CC(C)CC1NC(=O)C(C(C)c2c[nH]c3ccccc23)NC(=O)/C(=C\c2c[nH]c3ccccc23)NC(=O)C2CCCN2C(=O)CNC(=O)C(C)NC(=O)C(C(C)O)NC(=O)C(NC(=O)C(CO)NC(=O)CC(N)C(=O)O)C(C)OC(=O)C2CCCN2C1=O (stereo not drawn) [telomycin F] (βAsp-STTAGP[X1][X2]LP; ester 2-C; configuration not given here)
- activity against resistant strains [1]: comparable with the activity of telomycin A against sensitive strains

Compound: N-carboxyfluorescein telomycin [fluorescein-labelled telomycin conjugate]
- antimicrobial activity relative to telomycin [2]: slight decrease

Compound: LL-AO341β
- activity relative to telomycin (Gram positive organisms): improved activity
- cross-resistance with other antibacterial agents (Gram positive organisms; previous observations): does not demonstrate cross-resistance

Compound: telomycin A
- efficacy in animal studies [3]: demonstrated efficacy; also recorded: demonstrated value in vivo
- toxicity in animals / mammals [3]: without apparent toxicity
- toxicity in animals / mammals ([3]; listed as Telomycin): not known to possess significant toxicity
- hemolysis (sheep red blood cell): not hemolytic; also recorded: does not cause hemolysis
- hemolysis (sheep red blood cell; listed as Telomycin): not hemolytic; also recorded: does not Cause Hemolysis
- lysis of telomycin-resistant bacteria [4]: refractory to lysis
- cytotoxicity: not observed at concentrations up to (HEK293 cells): > 128 µg/mL
- lysis of bacteria (S. aureus [5]; concentrations above the MIC): rapid lysis
- lysis (CFUs before and after treatment) (S. aureus [5]; wild type S. aureus OD 0.2, 256 μg ml^−1 (32×MIC), 90 min): lyses S. aureus at high concentrations
- turbidity / precipitation with cardiolipin [6]: rapidly formed an opaque precipitant in a dose-dependent manner
- turbidity / precipitation with cardiolipin ([6]; listed as Telomycin): uniquely and rapidly acquire turbidity
- toxicity: not observed at concentrations up to [7]: > 40 µg/mL
- effect of cardiolipin on antibacterial activity of telomycin (B. subtilis [8]): completely abolish; also recorded: abolishes
- increase in MIC ([1]; telomycin-resistant bacteria generated with limited passaging, versus sensitive parent): 16 fold
- effect of phosphatidylglycerol on antibacterial activity of telomycin (B. subtilis [9]; phosphatidylglycerol in 10× molar excess): some protective effect
- effect of cardiolipin on antibacterial activity of telomycin (MIC) (B. subtilis [9]; telomycin 0.1 mM, lipids 1 to 0.05 mM): reduces telomycin's antibacterial activity in a dose-dependent manner
- telomycin activity after growth in high salinity (S. aureus [10]; S. aureus grown in CAMHB with 0, 0.5, 1, or 1.5 M NaCl): improved
- MIC (S. aureus [10]; Wild type S. aureus): 8 mg/L
- lysis of bacteria (B. subtilis [11]): rapid lysis
